ChEMBL document CHEMBL1138312, “Design and synthesis of indole-based peptoids as potent noncompetitive antagonists of transient receptor potential vanilloid 1” (J Med Chem, 2007)

What was measured:
[1] = biological target: Transient receptor potential cation channel subfamily V member 1 (Rattus norvegicus, UniProt O35433); assay: Blockade of capsaicin-activated rat TRPV1 channel expressed in Xenopus oocytes; format: cell-based, Oocyte
[2] = biological target: Glutamate NMDA receptor; Grin1/Grin2a (Rattus norvegicus, UniProt P35439+Q00959); assay: Blockade of L-glutamate/glycine-activated rat NR1/NR2A NMDA receptor expressed in Xenopus oocytes; format: cell-based, Oocyte
Chain of Glutamate NMDA receptor; Grin1/Grin2a (Q00959 whole entry, other chains not shown): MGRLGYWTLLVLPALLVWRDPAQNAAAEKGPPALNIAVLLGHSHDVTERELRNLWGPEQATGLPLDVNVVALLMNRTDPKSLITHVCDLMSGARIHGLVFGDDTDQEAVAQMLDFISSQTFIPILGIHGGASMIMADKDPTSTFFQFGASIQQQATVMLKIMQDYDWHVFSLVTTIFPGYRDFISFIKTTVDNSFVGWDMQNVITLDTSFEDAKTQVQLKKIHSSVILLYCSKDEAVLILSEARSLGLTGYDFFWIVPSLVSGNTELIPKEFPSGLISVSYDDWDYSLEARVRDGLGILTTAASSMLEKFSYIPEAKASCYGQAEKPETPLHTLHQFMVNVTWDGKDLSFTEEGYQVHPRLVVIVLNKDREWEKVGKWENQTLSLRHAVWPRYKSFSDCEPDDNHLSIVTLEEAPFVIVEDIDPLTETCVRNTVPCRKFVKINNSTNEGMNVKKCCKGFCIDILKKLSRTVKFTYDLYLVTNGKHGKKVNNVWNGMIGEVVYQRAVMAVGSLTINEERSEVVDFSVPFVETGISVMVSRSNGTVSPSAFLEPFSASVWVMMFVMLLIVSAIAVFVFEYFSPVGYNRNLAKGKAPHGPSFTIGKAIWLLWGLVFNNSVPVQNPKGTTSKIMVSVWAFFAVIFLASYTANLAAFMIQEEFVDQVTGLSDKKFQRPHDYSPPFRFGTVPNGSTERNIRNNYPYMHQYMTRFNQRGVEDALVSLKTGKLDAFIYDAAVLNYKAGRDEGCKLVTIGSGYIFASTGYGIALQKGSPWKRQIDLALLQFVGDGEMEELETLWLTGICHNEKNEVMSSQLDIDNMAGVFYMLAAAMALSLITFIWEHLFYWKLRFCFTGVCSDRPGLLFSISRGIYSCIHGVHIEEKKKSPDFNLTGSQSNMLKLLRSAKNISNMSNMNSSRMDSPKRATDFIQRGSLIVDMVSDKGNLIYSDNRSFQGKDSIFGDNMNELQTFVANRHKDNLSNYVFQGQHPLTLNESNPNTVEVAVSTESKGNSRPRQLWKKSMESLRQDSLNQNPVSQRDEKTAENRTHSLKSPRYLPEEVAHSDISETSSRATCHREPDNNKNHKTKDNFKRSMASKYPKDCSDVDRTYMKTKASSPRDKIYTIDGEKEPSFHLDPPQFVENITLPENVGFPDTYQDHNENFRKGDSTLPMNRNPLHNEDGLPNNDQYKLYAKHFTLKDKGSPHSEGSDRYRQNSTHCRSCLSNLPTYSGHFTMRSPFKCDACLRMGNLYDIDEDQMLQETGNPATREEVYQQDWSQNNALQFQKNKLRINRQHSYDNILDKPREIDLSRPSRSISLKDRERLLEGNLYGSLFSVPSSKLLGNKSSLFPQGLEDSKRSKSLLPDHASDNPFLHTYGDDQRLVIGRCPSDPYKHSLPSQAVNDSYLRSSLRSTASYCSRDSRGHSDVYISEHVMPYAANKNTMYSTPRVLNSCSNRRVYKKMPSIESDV

Chain of Transient receptor potential cation channel subfamily V member 1 (O35433 whole entry): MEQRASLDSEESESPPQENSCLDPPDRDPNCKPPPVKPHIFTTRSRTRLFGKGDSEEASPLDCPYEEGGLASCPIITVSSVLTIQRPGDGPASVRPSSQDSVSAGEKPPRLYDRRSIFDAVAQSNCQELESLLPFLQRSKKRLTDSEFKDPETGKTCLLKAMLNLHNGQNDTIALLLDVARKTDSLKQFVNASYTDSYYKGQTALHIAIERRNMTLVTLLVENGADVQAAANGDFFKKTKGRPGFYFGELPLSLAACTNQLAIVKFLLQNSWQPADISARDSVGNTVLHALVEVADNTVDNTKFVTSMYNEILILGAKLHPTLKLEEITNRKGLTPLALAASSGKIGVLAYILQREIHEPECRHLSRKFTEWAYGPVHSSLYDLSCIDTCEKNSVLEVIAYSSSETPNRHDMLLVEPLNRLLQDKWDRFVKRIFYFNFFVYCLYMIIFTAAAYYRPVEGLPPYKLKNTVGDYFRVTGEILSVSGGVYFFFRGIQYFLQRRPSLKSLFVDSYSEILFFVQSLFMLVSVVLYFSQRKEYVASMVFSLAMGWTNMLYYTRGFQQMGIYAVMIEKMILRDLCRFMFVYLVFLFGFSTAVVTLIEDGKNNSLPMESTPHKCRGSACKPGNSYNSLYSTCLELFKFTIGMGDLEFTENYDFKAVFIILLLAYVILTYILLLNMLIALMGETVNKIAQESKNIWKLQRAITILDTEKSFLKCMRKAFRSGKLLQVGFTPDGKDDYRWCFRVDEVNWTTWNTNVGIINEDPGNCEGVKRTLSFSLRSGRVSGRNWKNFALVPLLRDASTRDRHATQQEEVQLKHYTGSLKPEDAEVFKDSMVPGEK

Structure (SMILES) | IC50 [1] [nM] | IC50 [2] [nM]
N=C(N)NCCC[C@H](N)C(=O)N(CCc1ccc(Cl)cc1Cl)CC(=O)N(CCc1ccc(Cl)cc1Cl)CC(N)=O | 700 | 15000
NCCCCCCN(CCc1ccc(Cl)cc1Cl)CC(=O)N(CCc1ccc(Cl)cc1Cl)CC(N)=O | 400 | 3000
N=C(N)NCCC[C@H](N)C(=O)N(CCc1ccc(Cl)cc1Cl)CC(=O)NCCc1ccc(Cl)cc1Cl | 170 | 800
NC(N)=NCCC[C@H](N)C(=O)N(CCc1c[nH]c2ccccc12)CC(=O)NCCc1c[nH]c2ccccc12 |  | 18000
N=C(N)NCCC[C@H](N)C(=O)N(CCc1c[nH]c2ccccc12)CC(=O)N(CCc1c[nH]c2ccccc12)CC(N)=O | 1330 | 207000
NC(=O)CN(CCc1ccc(Cl)cc1Cl)C(=O)CN(CCc1c[nH]c2ccccc12)C(=O)[C@@H](N)CCCN=C(N)N | 520 | 17000
N=C(N)NCCC[C@H](N)C(=O)N(CCc1ccc(Cl)cc1Cl)CC(=O)N(CCc1c[nH]c2ccccc12)CC(N)=O | 180 | 166000
NC(N)=NCCC[C@H](N)C(=O)N[C@H]1C[C@@H](C(=O)NCCc2ccc(Cl)cc2Cl)N(Cc2ccc(Cl)cc2Cl)C1 | 700 | 8000
